Experimental data as given in patent publication US4196202A, “Carcinostatic composition containing 3-N-o-toluyl-5-fluorouracil producing the same” (priority 1977, dated 1980).
In brackets after ≈: the same amount, converted by molar mass. Read-outs that look alike come from different tables or passages of the source.

What was measured:
[1] = test system: Sarcoma 180; assay: Carcinostatic effect against Sarcoma 180 of a mouse, and toxicity (Example 5); assay type: in vivo; conditions: for toxicity: general debility, decrease in weight and napping; for ratio of tumor in wt.: seven days, Control 1.00
Description: Mice were separated into 7 groups of 10 mice. Sarcoma 180, having an initial cell number of 5×10^5, was innoculated hypodermically into each subject. After 24 hours, each composition was given to the subject mouse, except the Control, at the dose as shown in Table 3 for seven (7) consecutive days. On the tenth day from the initial innoculation, each subject was anatomized to examine the tumor weight, the average of which was then compared with that of the Control. Toxicity was also interpreted in view of general debility, decrease in weight and napping. In this test, 3-N-o-toluyl-5-FU was administered orally in the form of powder mixed with water, which was isolated by chromatography from that in oil emulsion.

[2] = test system: AH 130 (tumor cells of liver cancer of a rat); assay: Carcinostatic effect against AH 130 (tumor cells of liver cancer of a rat), and toxicity (Example 5); assay type: in vivo; conditions: for ratio of tumor in wt.: seven days, Control 1.00
Description: To further show the advantageous effects of 3-N-o-toluyl-5-FU of the present invention over related compounds known in the art, such as FT-207 and 5-FU, tests were conducted in accordance with the procedures as described below and the results are presented in Tables 3 and 4.
Rats were separated into 7 groups of 10 rats. AH 130, having an initial cell number of 5×10^5, was injected hypodermically into each subject and, after 24 hours, each composition was given to each subject rat at the dose shown in Table 4 for seven (7) consecutive days. On the 10th day from the initial innoculation, each subject was anatomized to examine the tumor weight, the average of which was compared with that of the non-treated Control. In this test, 3-N-o-toluyl-5-FU was also administered orally in the form of powder as in the former test.

[3] = test system: Ehrich cancerous cells; assay: growth inhibition of Ehrich cancerous cells in culture (Example 6); assay type: cell-based, mouse; conditions: for MIC / IC50: Mus musculus, 72 h; for IC50: Ehrlich, dose per unit volume effective for 50% of the cells, read-out: ED50 (the source's name)
Description: Cancerous cells employed:
(1) Ehrich cancerous cells of mouse;
Each kind of said cancerous cells, having an initial number of 3×10^4 and 4×10^4 was cultured in a nutrient medium on a slide glass in a flat bottle for 24 hours to make more than one sample, respectively; half for 5-FU and the other for 3-N-o-toluyl-5-FU in oil emulsion. Then 5-FU diluted with water of different concentrations and 3-N-o-toluyl-5-FU in oil emulsion of different concentrations was respectively added to the cells of each of said plate to make several different concentrations of said compounds per unit volume of each cell, and the culture was continued for three days. […] As a nutrient medium, MEM S10 or HAM-F S10 was employed.

[4] = test system: human thyroid cancer cells; assay: growth inhibition of human thyroid cancerous cells in culture (Example 7); assay type: cell-based; conditions: for IC50 / MIC: Homo sapiens, 72 h; for IC50: dose per unit volume effective for 50% of the cells, read-out: ED50 (the source's name)
Description: (§1) Included in Tables 5 through 7 for comparison are carcinostatic effect of 3-N-o-toluyl-5-FU on various kinds of cancerous cells. In these tables, MIC represents minimum inhibitory concentration (γ or microgram/ml) required to inhibit the growth of cancerous cells in a culture medium and ED50 (γ or microgram/ml) represents the dose per unit volume effective for 50% of the cells.
(2) Human thyroid cancerous cells; and
(§2) Each kind of said cancerous cells, having an initial number of 3×10^4 and 4×10^4 was cultured in a nutrient medium on a slide glass in a flat bottle for 24 hours to make more than one sample, respectively; half for 5-FU and the other for 3-N-o-toluyl-5-FU in oil emulsion. Then 5-FU diluted with water of different concentrations and 3-N-o-toluyl-5-FU in oil emulsion of different concentrations was respectively added to the cells of each of said plate to make several different concentrations of said compounds per unit volume of each cell, and the culture was continued for three days. The manner of the action of each of said compounds against each of the cells at different concentrations (weight per unit volume of cell) was observed by an inverted phase contrast microscope with the passage of time, as well as the multiplication and the change in morphology of the cells were examined by fixing and staining the cells on the slide glass after a period of three days. As a nutrient medium, MEM S10 or HAM-F S10 was employed. HAM-F S10 is a 10% serum supplemented medium described by Richard G. Ham in 1964, and is sold under the tradename "HAM F12 Nissui" in Japan.
(§3) The molecular weight of 5-FU is about 130 and that of 3-N-o-toluyl-5-FU is about 248. […] Accordingly, as used in the following explanations, the terms "weight concentration" refers to the γgm/ml of each compound used in a given test, and the term "molarity" generally refers to the number of molecules of each compound present in a given amount used in a test.

[5] = test system: Leiomyosarcoma cells; assay: growth inhibition of leiomyosarcoma cells in culture (Example 8); assay type: cell-based, human; conditions: for IC50 / MIC: Homo sapiens, 72 h; for IC50: dose per unit volume effective for 50% of the cells, read-out: ED50 (the source's name)
Description: as §1
(3) Leiomyosarcoma cells of human.
as §2, §3

[6] = side-effects on normal cells, mouse foot pad cells (Example 9); assay type: cell-based; conditions: mouse, foot pad cells; for cytotoxicity: MIC for Ehlrich cancerous cells versus ED50 for normal cells, read-out: normal cells damaged at the minimum dose inhibiting multiplication of the cancerous cells; for CC50 at 72 h: Table 8, normal cells, procedures of Examples 6-8, read-out: ED50
Description: as §2
(§4) Using the same procedures as in Examples 6-8, it was investigated whether the compound of the invention causes side-effects on normal cells.
(§5) ED50 for normal cells mean that this dose will inhibit the normal propagation of 50% of unattacked cells (that is, it may cause a harmful influence upon normal cells), while MIC for cancerous cells means that this dose will inhibit the multiplication of 100% of cancerous cells. Consequently when MIC of a compound for cancerous cells exceeds ED50 of the same for normal cells, it is considered that this compound must have side-effects.

[7] = test system: mouse foot pad cells; assay: as above; assay type: cell-based; conditions: for MIC: Mus musculus, 72 h, Table 8, normal cells, procedures of Examples 6-8
Description: as §2, §4, §5

[8] = test system: cancerous and tumorous cells; assay: tests of carcinostatic effect (several tests including a biological test); conditions: high dose sometimes leads to less effect than a low dose
Description: The present invention relates to carcinostatic compounds and compositions and a process for producing the same chiefly containing 5-fluorouracil derivatives (hereinafter referred to as 5-FU). 5-FU and its various derivatives are known to act as carcinostatic agents which disrupt cancerous cells or depress the multiplication thereof. […] That is to say, in spite of the fact that a remarkable carcinostatic effect was achnowledged using a low dose, a high dose sometimes leads to less carcinostatic effects than a low dose. […] In general, it can be easily presumed that these acylated 5-FU compounds, having the substituent group of NH, are to be obtained in acylation with the reagents represented by the general formula such as RCOX, wherein R represents an acyl group and X is halogen and (RCO)2 O, wherein R is an acyl group. However, 3-N-acyl-5-FU cannot be obtained directly from 5-FU because the acylation will preferably occur at the 1-position of 5-FU when 5-FU is reacted with the reagents under normal conditions. […]
In addition, the composition has many other advantageous features, e.g., only a low dose is necessary to be effective so that harmful side-effects are avoided as regards the normal cells. […] Furthermore, it is believed that the 5-FU ring is readily incorporated into RNA as a substituent for uracil. […]

[9] = 100 mg/kg daily, total 700 mg/kg
[10] = Tables 3 and 4 (Sarcoma 180 mice and AH 130 rats)
[11] = 30 mg/kg daily, total 210 mg/kg
[12] = Example 9, read-out: MIC for Ehrich cancerous cells
[13] = Table 5, minimum inhibitory concentration, three days, read-out: MIC
[14] = Table 6, minimum inhibitory concentration, three days, read-out: MIC
[15] = Table 7, minimum inhibitory concentration, three days, read-out: MIC
[16] = 200 mg/kg daily, total 1400 mg/kg
[17] = 90 mg/kg daily, total 630 mg/kg

SMILES	toxicity [1, 9]	ratio of tumor in wt. [1, 9]	toxic side-effects with increasing amount administered [1, 10]	toxicity [2, 11]	ratio of tumor in wt. [2, 11]	MIC [3, 12]	MIC [3, 13]	IC50 ([3]; Table 5, three days)	IC50 ([4]; Table 6, three days)	MIC [4, 14]	IC50 ([5]; Table 7, three days)	MIC [5, 15]	cytotoxicity [6]	CC50 at 72 h [6]	MIC [7]	other results
Cc1ccccc1C(=O)n1c(=O)[nH]cc(F)c1=O [3-N-o-toluyl-5-FU, 3-N-o-toluyl-5-fluorouracil]	-	0.367	does not produce toxic side-effects	-	0.84	2 µg/mL (≈ 8.06 µM)	2 µg/mL (≈ 8.06 µM)	1 µg/mL (≈ 4.03 µM)	0.6 µg/mL (≈ 2.42 µM)	1.25 µg/mL (≈ 5.04 µM)	0.3 µg/mL (≈ 1.21 µM)	1.25 µg/mL (≈ 5.04 µM)	< 50%	2.5 µg/mL (≈ 10.1 µM)	10 µg/mL (≈ 40.3 µM)	toxicity ([1]; 50 mg/kg daily, total 350 mg/kg): -; ratio of tumor in wt. ([1]; 50 mg/kg daily, total 350 mg/kg, oral powder mixed with water): 0.550; toxicity [2, 9]: -; ratio of tumor in wt. ([2]; 100 mg/kg daily, total 700 mg/kg, oral powder): 0.35; number of molecules for ED50 relative to 5-FU ([3]; number of molecules as reference standard): half that of 5-FU; MIC compared with 5-FU ([3]; weight concentration and molarity): apparently superior to 5-FU in both weight concentration and molarity; dose in weight concentration for carcinostatic effects, compared with 5-FU ([4]; Table 6): less than half the dose in weight concentration than that of 5-FU; carcinostatic efficacy compared with 5-FU ([5]; weight concentration, Table 7): considerably superior to 5-FU; side-effects compared with 5-FU ([7]; MIC for Ehrich cancerous cells versus ED50 for normal cells): less side-effects than 5-FU
O=c1[nH]c(=O)n(C2CCCO2)cc1F (centres unmarked) [FT-207]	-	0.516														toxicity [1, 16]: +; ratio of tumor in wt. [1, 16]: 0.418; toxic side-effects with increasing amount administered ([1]; mouse, in vivo): increasing the amount of the compound administered produces toxic results; toxicity [2, 17]: -; ratio of tumor in wt. [2, 17]: 0.60; toxicity [2, 16]: +; ratio of tumor in wt. [2, 16]: 0.35
Cc1ccccc1C(=O)n1cc(F)c(=O)n(C(=O)c2ccccc2C)c1=O [1,3-di-N-o-toluyl-5-FU]																carcinostatic effect, stability of the effect [8]: extremely unstable
O=c1[nH]cc(F)c(=O)[nH]1 [5-FU, 5-fluorouracil]			increasing the amount of the compound administered produces toxic results	+	0.55	2.5 µg/mL (≈ 19.2 µM)	2.5 µg/mL (≈ 19.2 µM)	1 µg/mL (≈ 7.69 µM)	1.25 µg/mL (≈ 9.61 µM)	2.5 µg/mL (≈ 19.2 µM)	1.25 µg/mL (≈ 9.61 µM)	2.5 µg/mL (≈ 19.2 µM)	50%	2.5 µg/mL (≈ 19.2 µM)	10 µg/mL (≈ 76.9 µM)	toxicity ([1]; 10 mg/kg daily, total 70 mg/kg): -; ratio of tumor in wt. ([1]; 10 mg/kg daily, total 70 mg/kg): 0.840; toxicity [1, 11]: +; ratio of tumor in wt. [1, 11]: 0.540; toxicity ([2]; 10 mg/kg daily, total 70 mg/kg): -; ratio of tumor in wt. ([2]; 10 mg/kg daily, total 70 mg/kg): 0.72; MIC ([3]; Table 9 and text, read-out: MIC (Elrich cancerous cells)): 2.5 µg/mL (≈ 19.2 µM); MIC ([4]; Table 9, read-out: MIC (human thyroid cancerous cells)): 2.5 µg/mL (≈ 19.2 µM); MIC ([5]; Table 9, read-out: MIC (leiomysarcoma)): 2.5 µg/mL (≈ 19.2 µM)
